From patent US20260240810A1, “COMPOSITIONS AND METHODS FOR REDUCING ADVERSE SIDE EFFECTS IN CANCER TREATMENT” (priority 2022, published 2026)

Assays:
[1] = tested on: CD2F1 mice, lethal total body irradiation; assay: Survival after lethal total body irradiation; assay type: in vivo
Experimental: Mice were treated with vehicle or 10 mg/kg RRx-001 intraperitoneally 24 hours prior to irradiation (9.35 Gy delivered at 0.6 Gy/min).
CD2F1 mice were treated with lethal dose 70/30 whole body irradiation dose of 9.35 Gy at 0.6 Gy/min using a ^60Co source. Twenty-four hours prior to irradiation, all mice were intraperitoneally injected with either 10 mg/kg RRx-001 or the vehicle control (5% dimethyl sulfoxide in sterile water).

[2] = Repeated-dose toxicity study in rats; assay type: in vivo; conditions: 3 times/week up to 4 weeks
Experimental: (§1) Repeated-dose toxicity studies of RRx-001 (3 times/week up to 4 weeks in duration) were conducted in rats at dose levels of 12 mg/kg, 20.1 mg/kg, and 30 mg/kg per day and in dogs at dose levels of 4 mg/kg, 8 mg/kg, and 12 mg/kg per day (due to clinical signs, the 8 mg/kg and 12 mg/kg doses were reduced to 3 mg/kg and 5 mg/kg on Day 4). The no observed adverse effect level was <12 mg/kg in rats and 5 mg/kg in dogs.

[3] = Repeated-dose toxicity study in dogs; assay type: in vivo
Experimental: as §1

[4] = tested on: severe oral mucositis in patients receiving head and neck chemoradiotherapy; assay: PREVLAR Phase 2a trial: oral mucositis in patients receiving cisplatin + IMRT; assay type: in vivo, human; conditions: for Median SOM duration: all patients, baseline to last day of radiation, 0 days if never SOM; for percent of SOM visits: minimum 65 Gy cumulative radiation; for median duration of SOM: only patients who developed SOM, onset to last visit with SOM
Experimental: Referring to FIG. 1, FIG. 1 is a table 100 showing a trial in which RRx-001 was tested in various groups of patients that were being treated for cancer with a combination of chemotherapy and IMRT. The various groups were divided into “Arms” based on a treatment: • Arm 1. pretreatment with 4 mg RRx-001 2 times per week for 2 weeks followed by 40 mg/m^2 each week or 100 mg/m^2 once every 3 weeks cisplatin+IMRT. • Arm 2. pretreatment with 4 mg RRx-001 2 times per week for 2 weeks followed by cotreatment with 4 mg RRx-001 2 times once on week 2 and once on week 5+40 mg/m^2 each week or 100 mg/m^2 once every 3 weeks cisplatin+IMRT. • Arm 3. pretreatment with 4 mg RRx-001 2 times per week for 2 weeks followed by cotreatment with 4 mg RRx-001 […]+40 mg/m^2 each week or 100 mg/m^2 once every 3 weeks cisplatin+IMRT. • Arm 4. standard of care 40 mg/m^2 each week or 100 mg/m^2 once every 3 weeks cisplatin+IMRT without RRx-001.
Accordingly, patients in Arm 1 of the study were administered a pretreatment of RRx-001 over a 2-week period. No RRx-001 was administered to the patients following the pretreatment period. Following the 2-week pretreatment period, the therapeutic agent comprising cisplatin and IMRT was administered to the patients over a 6-week period.
Patients in Arm 2 of the study were likewise administered a pretreatment of RRx-001 over a 2-week period. But RRx-001 was further administered at a low dose concurrently with cisplatin and IMRT over the 6-week period following the pretreatment period.
Arm 4 of the study was the control or standard of care (SOC). No RRx-001 was administered to the patients in Arm 4 of the study and there was no pretreatment period. All patients received the same amounts of cisplatin and IMRT for Arm 1, Arm2, Arm 3, and Arm 4 of the study. Patients in the study had the option to stop or refuse treatment at any time and not all patients finished the entire treatment.
Example 2 is a Phase 2a randomized, multi-institutional (n=13, of which 12 enrolled), open-label/unblinded, controlled trial in which patients were centrally randomized into four groups (“Arms”), with approximately 10 patients per Arm (or group) before the start of CRT, stratified by oropharynx versus oral cavity site. See M. Bonomi, et al. (2023) Int. J. Radiat. Oncol. Biol. Phys. 116(3): p. 551-559.
Study participants were adults (>18 years) with pathologically diagnosed stage III to IVB locally advanced (nonmetastatic) squamous cell carcinoma of the oral cavity or oropharynx that were scheduled to receive definitive or postoperative daily fractionation IMRT of 2.0 Gy to 2.2 Gy for a total dose of 60 Gy to 72 Gy with concomitant cisplatin given as either weekly (40 mg/m^2) or tri-weekly (100 mg/m^2) infusions. Radiation fields included at least 2 oral sites at risk of OM (e.g., buccal mucosa, floor of mouth, lateral/ventral tongue, or soft palate), which were planned to receive a minimum cumulative dose of 55 Gy. […] Patients received a pretreatment evaluation including complete history, dental assessment, physical examination, complete blood count and complete metabolic profile, hematology and biochemistry profiles, optional laryngoscopy, chest computed tomography (CT) or positron emission tomography (PET)/CT, CT, and a magnetic resonance imaging (MRI) or PET/CT of the tumor site and neck nodes.
Arms 1 to 3 received twice weekly infusions of RRx-001, 4 mg/dose after a premedication dose of dexamethasone (10 mg) for the 2 weeks preceding the start of CRT. Patients in Arm 2 received two additional 4 mg doses of RRx-001 after being premedicated with dexamethasone in weeks 2 and 5 of their CRT regimen. Patients in Arm 3 received weekly RRx-001 (4 mg after dexamethasone pre-dosing) during the first 6 weeks of CRT. Treatment was completed on the last day of radiation therapy (LDRT).
The treatment phase commenced 2 weeks before the start of CRT and continued until the LDRT. […]

[5] = 10 mg/kg 24 hours prior to lethal total body irradiation, vs vehicle control
[6] = Arm 1: RRx-001 pretreatment + SOC chemoradiation

SMILES: O=C(CBr)N1CC([N+](=O)[O-])([N+](=O)[O-])C1 [RRx-001, 2-bromo-1-(3,3-dinitroazetidin-1-yl) ethan-1-one]
- increase in mean survival time [1, 5]: 7 days
- increase in survival [1, 5]: 33.4%
- Survival over 30 days post-exposure ([1]; 10 mg/kg intraperitoneally 24 hours prior to 9.35 Gy at 0.6 Gy/min): 67%
- reduction in the 30-day death risk ([1]; 1 dose of 10 mg/kg 24 hours prior to 9.35 Gy, vs vehicle control): ~33.4%
- no observed adverse effect level [2]: < 12 mg/kg
- no observed adverse effect level ([3]; 3 times/week up to 4 weeks): 5 mg/kg
- organ effects ([3]; repeated dose): Effects on lungs were observed
- estimate (averaged across all visits) MMRM probability of SOM ([4]; (pooled) RRx-001 treatment): 15.3%
- incidence of SOM (any WHO score ≥3 between baseline to the last day of radiation) ([4]; Arm 1): 83.3%
- patients with at least one day of Grade 4 OM between the first and LDRT ([4]; Arm 1): 23.1%
- percent of visits with most severe forms (Grade 4) mucositis ([4]; Arm 1): 3.3%
- decrease in duration of SOM through 60 Gy vs. Arm 4 ([4]; Arm 1: 4 mg RRx-001 2 times per week for 2 weeks pretreatment, then cisplatin+IMRT): 16 days
- average days longer than Arm 4 before onset of SOM from start of chemotherapy [4, 6]: 12 days
- decrease in SOM duration following treatment of IMRT compared to Arm 4 [4, 6]: 18 days
- Median SOM duration ([4]; Arm 1): 5 days
- percent of SOM visits ([4]; Arm 1): 23.6%
- median duration of SOM ([4]; Arm 1): 8.5 days
- incidence of SOM (any WHO score ≥3 between baseline to the last day of radiation) ([4]; Arm 2): 70%
- patients with at least one day of Grade 4 OM between the first and LDRT ([4]; Arm 2): 40%
- percent of visits with most severe forms (Grade 4) mucositis ([4]; Arm 2): 12.2%
- incidence of grade 4 OM through 60 Gy ([4]; Arm 2: RRx-001 pretreatment + 2 concurrent doses + SOC chemoradiation): 40%
- Median SOM duration ([4]; Arm 2): 13.5 days
- percent of SOM visits ([4]; Arm 2): 22.2%
- median duration of SOM ([4]; Arm 2): 17 days
- incidence of SOM (any WHO score ≥3 between baseline to the last day of radiation) ([4]; Arm 3): 76.9%
- patients with at least one day of Grade 4 OM between the first and LDRT ([4]; Arm 3): 46.2%
- percent of visits with most severe forms (Grade 4) mucositis ([4]; Arm 3): 7.7%
- incidence of grade 4 OM through 60 Gy ([4]; Arm 3: RRx-001 pretreatment + 6 concurrent doses + SOC chemoradiation): 46%
- Median SOM duration ([4]; Arm 3): 8 days
- percent of SOM visits ([4]; Arm 3): 25.7%
- median duration of SOM ([4]; Arm 3): 10 days
- Odds ratio estimate ([4]; MMRM analysis of SOM, contrast SOC alone / (Pooled RRx-001)): 3.24
- SOM Probability (averaged across all visits) ([4]; MMRM analysis, pooled RRx-001-treated patients): 0.153
- aggregate percent of SOM visits ([4]; active arms, patients with minimum 65 Gy cumulative radiation): 23.9%
- incidence of SOM through the short-term follow-up period ([4]; active patients): 80%
- SOM incidence by the last dose of radiotherapy (LDRT) ([4]; aggregate active Arms, about 72 Gy): 77.1%
- patients exhibiting SOM ([4]; patients who received RRx-001 (treated Arms), cumulative RT dose 45 Gy): 42.9%
- patients exhibiting SOM ([4]; treated Arms, 55 Gy): 57.1%
- patients exhibiting SOM ([4]; treated Arms, 65 Gy): 71.4%
